Bridge positions count the residues as written; N and C are the ends. Peptide text beside a SMILES is read from it.
Assays:
Lcn2-Fc = assay: Phage competition ELISA of surface-bound peptides on immobilized Lcn2-Fc; assay type: binding; settings: compared to Lcn2-Fc pre-complexed with CTLA4-Fc or PBS control
Excerpt: FIGS. 2A and 2B: Identification and characterization of a peptide (CTLA-4 binding domain masking peptide) blocking binding of mLcn2 (CTLA-4 binding domain) to CTLA-4. […] FIG. 2B is a graph showing surface plasmon resonance traces of analyte mLcn2-Fc flowed over ligand Peptide 16 immobilized to a CM5 chip.
FIG. 10B: ELISA results of bacteriophage library after three rounds of enrichment. Wells in a 96-well plate were immobilized with mLcn2-Fc (left column), mLcn2-Fc pre-complexed with CTLA-4-Fc (middle column), or PBS (right column). Each condition was performed in triplicate.
FIGS. 12A-12D: 18 min substrate incubation. […] FIG. 12A is a graph showing Clone 1—YGLGFNF (SEQ ID NO:52); FIG. 12B is a graph showing Clone 2—RIDETLQ (SEQ ID NO:53); FIG. 12C is a graph showing Clone 3—FTPWPEA (SEQ ID NO:54); and FIG. 12D is a graph showing Clone 4—WPEWDLW (SEQ ID NO:55).
FIGS. 13A-13D: 18 min substrate incubation. […] FIG. 13A is a graph showing clone 6—EKWFRFM (SEQ ID NO:56); FIG. 13B is a graph showing clone 8—YLELMHS (SEQ ID NO:57); FIG. 13C is a graph showing clone 12—SVLPPFM (SEQ ID NO:58); FIG. 13D is a graph showing clone 16—WSPLPFM (SEQ ID NO:59).
(§1) The sequence of mLcn2 was obtained from the PDB, synthesized and produced in bacteria. Peptides that specifically bind to mLcn2 were identified using a cyclic 7-mer library. Positive leads were identified and sequencing of these hits indicated an overall pattern in the sequences. To further characterize the lead peptides and to ensure the peptides bound to the same site as CTLA, a competition ELISA was performed using all leads (FIG. 2A). Based on this analysis, two cyclic peptides were chosen, chemically synthesized, and characterized by SPR (FIG. 2B) and crystallography. Well diffracting crystals were obtained for both complexes (1.95 and 2.15 Å) and refined (R/Rfree of 18.0/22.5% and 16.5/18.5% and no Ramachandran outliers). […] Design of the linker was aided by examination of the crystal structure of lipocalin.

mLcn2-Fc = assay: SPR of analyte mLcn2-Fc flowed over immobilized Peptide12; assay type: binding; settings: peptide immobilized on CM5 chip, three independent experiments
Excerpt: FIG. 14B: mLCN2-Fc vs. Pep12. Surface plasmon resonance of analyte mLcn2-Fc flowed over ligand Peptide12 immobilized to a CM5 chip. Representative results are shown from three independent experiments.
as §1

[1] = most common major toxicity; cited from earlier work
mLcn2 = molecular target: T1, mLcn2 (Homo sapiens, UniProt P80188, A60R/C107S/D67H/D97E/E64D/F91S/G122D/H138Y/K145L/K154A/K66Q/K70N/K93H/L123K/L157I/L90I/M140V/N134D/P121G/Q148D/Q48H/Q69M/R101A/R150A/R92S/S147E/T165A/V146A/W99T/Y152F); assay: SPR of analyte mLcn2 flowed over immobilized Peptide16; assay type: binding
T1 construct: made in house; host or cells: bacteria
Excerpt: FIG. 14A: mLCN2 vs. Pep16. Surface plasmon resonance of analyte mLcn2 flowed over ligand Peptide16 immobilized to a CM5 chip. Representative results are shown from three independent experiments.
as §1

Compound | phage binding to immobilized Lcn2-Fc by ELISA (Lcn2-Fc) | other results
CWPEWDLWC [Peptide 4] | increased binding to immobilized Lcn2-Fc | –
CYGLGFNFC [Peptide 1] | increased binding to immobilized Lcn2-Fc | –
CYLELMHSC [Peptide 8] | increased binding to immobilized Lcn2-Fc | –
CRIDERLQC [Peptide 2] | increased binding to immobilized Lcn2-Fc | –
CEKWFRFMC [Peptide 6] | increased binding to immobilized Lcn2-Fc | –
CSVLPPFMC [Peptide 12] | increased binding to immobilized Lcn2-Fc | Kd (mLcn2-Fc): 3.4 µM
CFTPWPEAC [Peptide 3] | increased binding to immobilized Lcn2-Fc | –
ipilimumab | – | patients affected by enterocolitis [1]: approximately 20%
CSCC[C@@H]1NC(=O)[C@H](Cc2ccccc2)NC(=O)[C@@H]2CCCN2C(=O)[C@H](CC(C)C)NC(=O)[C@@H]2CCCN2C(=O)[C@H](CO)NC(=O)[C@H](Cc2c[nH]c3ccccc23)NC(=O)[C@@H](N)CSSC[C@@H](C(=O)O)NC1=O [Peptide 16, CWSPLPFMC] (H-CWSPLPFMC-OH; disulfide 1-9) | – | Kd (mLcn2): 4.6 µM

— patent US10689423B2, “CTLA4-binding protein peptide-linker masks” (City of Hope, priority 2015, dated 2020)
